In patent publication US11369572B2, “Fas (Apo-1,CD95) targeted platforms for intracellular drug delivery” (Queen Mary & Westfield College, priority 2009, dated 2022) one finds further animals sacrificed data, which are given here for 1 compound.

This test relates to IGROV1-luciferase cells. Put plainly: Peritoneal ovarian cancer xenograft, bioluminescence imaging. To be noted: by day 48; n=5.

Structures are written as SMILES.

Description: 5×10^6 IGROV1-luciferase cells were inoculated IP into female Balb C nu/nu mice on day 1. Paclitaxel (20 mg/kg) and PLGA microspheres were administered IP once per week (days 7, 14, 21 and 28). For bioluminescence imaging, mice were injected IP with 125 mg/kg D-luciferin (Calliper Life Sciences, UK) and then anesthetized (2% isofluorane by inhalation). Five minutes later, whilst still under anaesthetic, they were placed in a light-tight chamber on a warmed stage (37° C.) and light emission from a defined region of interest on a ventral surface was imaged on a Xenogen IVIS Imaging System 100 system (Alameda, Calif., USA). Data were analyzed using Living Image software (also Xenogen, Alameda, Calif., USA) and are presented as relative radiance (calculated from mean Radiance photons/s/cm2/sr).”
Standard error of mean (SEM) was used to assess consistency between each experimental group. One way ANOVA with Bonferroni post test were used to evaluate differences between groups. Two tailed t test was used to compare two groups.

As for `CC(=O)O[C@H]1C(=O)[C@@]2(C)[C@H]([C@H](OC(=O)c3ccccc3)[C@]3(O)C[C@H](OC(=O)[C@H](O)[C@@H](NC(=O)c4ccccc4)c4ccccc4)C(C)=C1C3(C)C)[C@]1(OC(C)=O)CO[C@@H]1C[C@@H]2O` [paclitaxel], the further animals sacrificed amounted to 2.
